Test results reported in the OligoGym collection.
After the bases stand the sugars from the 5' end (letter, count) and the backbone: PS all phosphorothioate, else s phosphorothioate and o phosphodiester by linkage. Methylation of C is not given here. e = 2'-O-(2-methoxyethyl) (MOE); k = constrained ethyl (cEt); d = 2'-deoxy (DNA); m = 2'-O-methyl

Target: HSD17B13
Conditions: ASO, HepaRG

Sequence | target mRNA inhibition (1 µM) | also measured
CTATAACTGGAAGGAG (sugars k3 d10 k3, PS) | 43% | –
CTATATAAATTCTGAC (sugars k3 d10 k3, PS) | 0% | –
CTATATACATCCAAGT (sugars k3 d10 k3, PS) | 6% | –
CTATGCAAGCCTTCAC (sugars k3 d10 k3, PS) | 19% | –
CTATTAGTTGGCCTGC (sugars k3 d10 k3, PS) | 32% | –
CTCAAAGCCTGTTGGA (sugars k3 d10 k3, PS) | 10% | –
CTCAAATAGCCTTTTG (sugars k3 d10 k3, PS) | 64% | –
CTCAAGGAGTACTTCA (sugars k3 d10 k3, PS) | 82% | target mRNA inhibition (0.02 µM): 2%; target mRNA inhibition (0.078 µM): 2%; target mRNA inhibition (0.313 µM): 30%; target mRNA inhibition (1.25 µM): 78%; target mRNA inhibition (5 µM): 95%
CTCAGAGTTCAGGCAA (sugars k3 d10 k3, PS) | 67% | –
CTCAGGCTGTAAGAGT (sugars k3 d10 k3, PS) | 21% | –
CTCCAAGTAGGAGTAG (sugars k3 d10 k3, PS) | 5% | –
CTCCAATACAGGCCAT (sugars k3 d10 k3, PS) | 20% | –
CTCCATAATAATAGCT (sugars k3 d10 k3, PS) | 59% | –
CTCCGTTATAAGTTTC (sugars k3 d10 k3, PS) | 59% | –
CTCCTGGTACATGCCA (sugars k3 d10 k3, PS) | 47% | –
CTCCTTATGTTATCTC (sugars k3 d10 k3, PS) | 57% | –
CTCGCCTAAAGGAGAT (sugars k3 d10 k3, PS) | 56% | –
CTCGCGAGATGATGTT (sugars k3 d10 k3, PS) | 40% | –
CTCTAAAGCAGGCTAC (sugars k3 d10 k3, PS) | 51% | –
CTCTGGGACCAAGGAT (sugars k3 d9 k3 e1, PS) | 62% | –
CTCTTAGCTGTGCACT (sugars k3 d10 k3, PS) | 53% | –
CTCTTATCTGATATGA (sugars k3 d10 k3, PS) | 7% | –
CTCTTCATCCTTGGTG (sugars k3 d10 k3, PS) | 25% | –
CTGAAATTGATACACC (sugars k3 d10 k3, PS) | 67% | –

Sequence | target mRNA inhibition (1 µM) | also measured
CTGAAATTGATACACC (sugars kkdddddddddkekek, PS) | 45% | –
CTGAGAAGATCGGCTG (sugars k3 d10 k3, PS) | 37% | –
CTGAGCTAGACAATTG (sugars k3 d10 k3, PS) | 56% | –
CTGATGTCAGACCTCT (sugars k3 d10 k3, PS) | 35% | –
CTGATTTAGTTGGTAG (sugars k3 d10 k3, PS) | 78% | target mRNA inhibition (0.02 µM): 0%; target mRNA inhibition (0.078 µM): 0%; target mRNA inhibition (0.313 µM): 41%; target mRNA inhibition (1.25 µM): 70%; target mRNA inhibition (5 µM): 88%
CTGCCAGGGAATGCTC (sugars k3 d10 k3, PS) | 23% | –
CTGCTACTCTAGGAGA (sugars k3 d10 k3, PS) | 66% | –
CTGCTAGTGCCAAACC (sugars kkdddddddddkekek, PS) | 51% | –
CTGCUAGTGCCAAACC (sugars k3 d1 m1 d8 k3, PS) | 67% | –
CTGCUGCTAGTGCCAA (sugars k3 d1 m1 d8 k3, PS) | 66% | –
CTGGAAGGAGGATTCA (sugars k3 d10 k3, PS) | 39% | –
CTGGAGGTATGTCATA (sugars k3 d10 k3, PS) | 23% | –
CTGGATATACTGTCCC (sugars k3 d10 k3, PS) | 20% | –
CTGGGACCAAGGATAT (sugars k3 d10 k3, PS) | 32% | –
CTGGGATACTATTCTC (sugars k3 d10 k3, PS) | 57% | –
CTGGTTCAGTCCTTGT (sugars k3 d10 k3, PS) | 63% | –
CTGTGAGAGGATAGTG (sugars k3 d10 k3, PS) | 33% | –
CTGTGGCATGGCTACA (sugars k3 d1 m1 d8 k3, PS) | 35% | –
CTGTGGCATGGCTACA (sugars k3 d9 k3 e1, PS) | 58% | –
CTGTGGCATGGCTACA (sugars k3 d10 k3, PS) | 66% | –
CTTAATTTTCGGGTTC (sugars k3 d10 k3, PS) | 37% | –
CTTACATGATTAAGCA (sugars k3 d10 k3, PS) | 44% | –
CTTACCAATATGGGAT (sugars k3 d10 k3, PS) | 11% | –
CTTACGACTTCATCTG (sugars k3 d10 k3, PS) | 38% | –

Sequence | target mRNA inhibition (1 µM) | also measured
CTTATGATAATTTGGT (sugars k3 d10 k3, PS) | 2% | –
CTTATTGGTAAGTATT (sugars kkdddddddddkekek, PS) | 9% | –
CTTAUTGGTAAGTATT (sugars k3 d1 m1 d8 k3, PS) | 0% | –
CTTCACTATATTGCAT (sugars k3 d10 k3, PS) | 50% | –
CTTCAGTTAGCAGCTA (sugars k3 d10 k3, PS) | 50% | –
CTTCCAAGCATTCCAT (sugars k3 d10 k3, PS) | 57% | –
CTTCTATTAGTTGGCC (sugars k3 d10 k3, PS) | 11% | –
CTTGACAATGGTTGCC (sugars k3 d10 k3, PS) | 58% | –
CTTGATCTCTTAGCTG (sugars k3 d10 k3, PS) | 51% | –
CTTGGAAGGAGACTGG (sugars k3 d10 k3, PS) | 60% | –
CTTGGGTCCATTGTTT (sugars k3 d10 k3, PS) | 44% | –
CTTGTGTAGTCCTAGG (sugars k3 d10 k3, PS) | 71% | target mRNA inhibition (0.02 µM): 7%; target mRNA inhibition (0.078 µM): 13%; target mRNA inhibition (0.313 µM): 39%; target mRNA inhibition (1.25 µM): 70%; target mRNA inhibition (5 µM): 87%
CTTTAGCTTAAACTCC (sugars k3 d10 k3, PS) | 69% | –
CTTTGAGACTCTTGTT (sugars k3 d1 m1 d8 k3, PS) | 15% | –
CTTTGCAGCATTGATT (sugars k3 d9 k3 e1, PS) | 56% | –
CTTTGCAGCATTGATT (sugars kkdddddddddkekek, PS) | 49% | –
CTTTTAGTCAGGTAGA (sugars k3 d10 k3, PS) | 33% | –
CTTTTGGTGGACTTCA (sugars k3 d10 k3, PS) | 10% | –
CTTTUTATAGACTGGG (sugars k3 d1 m1 d8 k3, PS) | 34% | –
GAAAACTCAGCCAGCA (sugars k3 d10 k3, PS) | 78% | target mRNA inhibition (0.02 µM): 0%; target mRNA inhibition (0.078 µM): 2%; target mRNA inhibition (0.313 µM): 51%; target mRNA inhibition (1.25 µM): 73%; target mRNA inhibition (5 µM): 75%
GAAAAGATGTACACTG (sugars k3 d10 k3, PS) | 56% | –
GAAAAGCCTGACTCAC (sugars k3 d10 k3, PS) | 48% | –
GAAATCTTGTGTAACT (sugars k3 d10 k3, PS) | 69% | target mRNA inhibition (0.02 µM): 0%; target mRNA inhibition (0.078 µM): 4%; target mRNA inhibition (0.313 µM): 37%; target mRNA inhibition (1.25 µM): 71%; target mRNA inhibition (5 µM): 87%
